Data: patent US10752647B2, “N-phosphonoxymethyl prodrugs of hydroxyalkyl thiadiazole derivatives” (DAIICHI SANKYO COMPANY, LIMITED, priority 2017, dated 2020)
≈ marks a conversion by molar mass, not a printed value. Like-named read-outs stand apart in the source and are kept apart here.

Columns and labels:
[1] = Conversion efficiency / PK profile after IV dose in rats (Compounds No. 5 and No. 7); type: in vivo; conditions: Rat, plasma, parent compound IV 1 mg/kg; read-out: Parent compound AUCinf
Procedure: Determination of conversion efficiency of Compound No. 5 and Compound No. 7 was conducted in rats. Animals were divided in two groups with two animals in each group. One group received an IV dose of prodrug and the other group received an IV dose of parent compound. Serial blood sampling was carried out at 0.08, 0.25, 0.5, 1, 2, 4, 7, and 24 h post dose from both of the animal groups. Blood samples were centrifuged to harvest plasma. Plasma samples of prodrug administered animals were simultaneously analyzed for both analytes (prodrug and parent compound) using LC-MS/MS. AUC of plasma concentrations versus time profiles were calculated in WinNonlin software and percentage conversion efficiency was determined using the formula: Percentage conversion efficiency=(AUCiv of parent compound from prodrug administered samples)/(AUCiv of parent compound from parent compound administered samples)/(molecular weight of parent compound)×(molecular weight of prodrug)×100. PK profile of Compound No. 5 and Compound No. 7 in rats are depicted in Table 7.

[2] = Solubility of parent compounds and prodrugs in phosphate buffer; type: physicochemical; conditions: aqueous buffer, thermodynamic from solid; parent compound, phosphate buffer, 25° C., more than 4 weeks, pH 7.0
Procedure: Parent compounds: About 5 mg of parent compounds (biologically active forms of prodrugs) were added to 950 μL of phosphate buffer, and mixed vigorously for 1 hour at 25° C. Then, these samples were stored at 25° C. for more than 4 weeks and filtered to remove undissolved parent compounds. Next, these solutions were diluted with 50% aqueous acetonitrile solution. The resulting test solutions were assayed by HPLC. Prodrugs: About 30 mg of prodrugs were added to 120 μL of phosphate buffer, and mixed vigorously for 1 hour at 25° C. After shaking, pH of these solutions were adjusted at pH 7.0 by 1 mol/L NaOH solution. Then, the total volume were adjusted to 280 μL with purified water. Next, these solutions were stored at 25° C. for more than 4 weeks and filtered to remove undissolved compounds. These solutions were diluted with 50% aqueous acetonitrile solution. The resulting test solutions were assayed by HPLC.

[3] = system: Clostridium difficile 2009155, a NAP1/027 strain; test: Hamster CDI model; type: in vivo; conditions: 0.3 mg/kg/day for 5 days
Procedure: d) Method for Testing Therapeutic Effect of Compounds in Hamster CDI Model
The in vivo efficacy of Compound No. 1 was evaluated in a hamster CDI model caused by Clostridium difficile 2009155, a NAP1/027 strain. The Syrian hamsters (7-9 weeks old, National Centre for Laboratory Animal Sciences, National Institute Nutrition, Hyderabad, India.) were acclimatized at least 7 days prior the experiment. Hamsters primed with a single subcutaneous injection of clindamycin (30 mg/kg) 1 day prior to infection. Hamsters were infected by oral gavage with 1 mL of spore suspension (2-3×10^5) prepared in PBS. The test compounds were prepared using the 0.25 w/v % Methyl Cellulose Solution for oral administration and 10% HP ß-CD for SC administration and treatment was started 6 h post infection at an interval of 24 h for 5 days. Hamsters were administered a dose of 0.03-0.3 mg/kg/day for 5 days. The death and survival time of the hamsters treated with test compound administered group and non-treated group (vehicle-control) were recorded once daily for 35 days and were compared. A change in the survival time was used as an index of therapeutic effect.

[4] = system: VRE IV258 21076; test: Neutropenic mouse thigh infection model, VRE IV258 21076; type: in vivo, Enterococcus
Procedure: (§1) (b) Method for Testing Therapeutic Effect of Compounds Against MRSA 02541 and VRE IV258 21076 Using Neutropenic Mouse Thigh Infection Model
(§2) Swiss Webster mice of 4 to 6-week-old were used for this experiments (Vivo Biotech Limited, Hyderabad, India, n=5 mice per group). Mice were rendered neutropenic as described above. Overnight grown culture of MRSA 02541 on Mueller-Hinton broth (MHB) was adjusted to 0.5 Mac Farland. The suspension was then diluted 1:100 in fresh MHB and 100 μl was injected intra-muscularly in the right thigh muscles of the mice (n=5/group). In case of VRE IV 258-21076 culture was mixed with 10% hog mucin in 1:1 proportion. The bacterial inocula were confirmed by quantitative culture analyses and found to be 3×10^6 CFU for MRSA and 2×10^6 for VRE IV258-21076 per mL. Treatment started 2 h post infection. The test compound was administered to the mice one to eight times at an interval of 3 to 24 hr. The number of bacteria in the thigh muscle was counted for the non-treated group immediately before initial administration of the test compound (pre-control), for the non-treated group (post-control) and for the test compound-administered group on the next day of administration of the test compound and infection. A change in the number of bacteria in the thigh was used as an index of therapeutic effect.

[5] = Solubility in Japanese Pharmacopeia First Fluid (JP1) and Second Fluid (JP2); type: physicochemical; conditions: thermodynamic from solid, room temperature
Procedure: Method of Testing Solubility in Water and Neutral Buffer A 10 mmol/L solution of the test compound was prepared in DMSO and dispensed 100 μL of 10 mmol/L DMSO stock solutions into labeled glass tubes in duplicate, one for Japanese Pharmacopeia First Fluid (JP1) and second for Japanese Pharmacopeia Second Fluid (JP2). After evaporation of DMSO from each tube, 500 μL of JP1 and JP2 fluid were added in each tube, respectively. These tubes were sonicated for 1 minute and placed on shaker for 30 minutes with an interval of 30 seconds at every 5 minute. Tubes were placed in dark at room temperature for 1 hour and solution was filtered through membrane filter. The filtrate was diluted 2-fold and 10-fold. The resulting test solutions was analyzed and quantified against the standards using UPLC (standard preparation-10 mmol/L solution in DMSO is serially diluted with 50% aqueous acetonitrile solution to prepare 2 solutions; 100 μmol/L standard solution and 5 μmol/L standard solutions).

[6] = system: MRSA 02541; test: Neutropenic Sprague Dawley rat thigh infection model, MRSA 02541; type: in vivo, Staphylococcus aureus; conditions: for log10 kill (number of bacteria in the thigh): 25 mg/kg, IV qid
Procedure: c) Method for Testing Therapeutic Effect of Compounds Against MRSA 02541 Using Neutropenic Sprague Dawley Rat Thigh Infection Model
Sprague Dawley rats of 4 to 6-week-old were used for this experiments (Vivo Biotech Limited, Hyderabad, India, n=4 rats per group). Rats were rendered neutropenic by intraperitoneal injection of cyclophosphamide. Overnight grown culture of MRSA 02541 in MHB was adjusted to 0.5 Mac Farland. The suspension was then diluted 1:10 in fresh MHB and 200 μl was injected intra-muscularly in the right thigh muscles of the rat. The bacterial inocula were confirmed by quantitative culture analyses and found to be 6×10^6 CFU per rat thigh muscle. Treatment started 2 h post infection. The test compound was administered to the rat four times at an interval of 6 hr. The number of bacteria in the thigh muscle was counted for the non-treated group immediately before initial administration of the test compound (2 h pre-control), for the non-treated group (26 h post-control) and for the test compound-administered group on the next day of administration of the test compound and infection. A change in the number of bacteria in the thigh was used as an index of therapeutic effect.

[7] = system: MRSA 02541; test: Neutropenic mouse thigh infection model, MRSA 02541; type: in vivo, Staphylococcus aureus
Procedure: as §1, §2

[8] = system: MRSA 562; test: Mouse lung infection model by MRSA 562 (neutropenic Swiss mice); type: in vivo, Staphylococcus aureus
Procedure: a) Method for Testing Therapeutic Effect of Compounds Using Mouse Lung Infection Model by MRSA 562
Mice were rendered neutropenic with two intra-peritoneal injections (IP) of cyclophosphamide on day −4 and day −1 prior to infection at the dose rate of 150 mg and 100 mg per kg body weight. Overnight grown MRSA 562 was diluted 1:10 in fresh Brain Heart Infusion broth and mixed 1:1 with 5% hog mucin. The bacterial suspension (3.16×10^6/mouce/50 μL) was then inoculated to each pre-anaesthetized mice (xylazine 5 mg/kg and ketamine 100 mg/kg mixture) into the nares of Swiss mice (4 to 6-week-old, Vivo Biotech Limited, Hyderabad, India), n=5 mice per group). The test compound was administered to the mice once, twice and four times at an interval of 24, 12 and 6 hr, respectively. The number of bacteria in the lungs was determined in the non-treated group immediately before initial administration of the test compound (pre-control) and in the non-treated group (post-control) and the test compound-administered group on the next day of administration of the test compound and infection. A change in the number of bacteria in the lungs was used as an index of therapeutic effect.

[9] = Conversion efficiency / PK profile after IV dose in rats (Compounds No. 1 and No. 2); type: in vivo; conditions: 15.3 mg/kg; Rat, plasma, prodrug IV 15.300 mg/kg, analyte prodrug; read-out: Compound No. 1 AUCinf
Procedure: Method of Testing Conversion Efficiency Determination of conversion efficiency of Compound No. 1 and Compound No. 2 was conducted in rodents (mice and rats) and non-rodents (monkeys and dogs). Animals were divided in two groups with two animals in each group. One group received an intravenous (IV) dose of prodrug and the other group received an IV dose of parent compound. The dose of prodrug was taken as molar equivalent dose of parent compound. Serial blood sampling was carried out at 0.083, 0.33, 1, 2, 4, 8 and 24 h post IV dose from both the animal groups. Blood samples were centrifuged to harvest plasma. Plasma samples were stored at −80° C. until analysis. Plasma samples of prodrug administered animals were simultaneously analyzed for both analytes (prodrug and parent compound) using LC-MS/MS. Area under the curve (AUC) of plasma concentrations versus time profiles were calculated in WinNonlin software and percentage conversion efficiency was determined using the formula: Percentage conversion efficiency=(AUCiv of parent compound (from prodrug administered samples)×100/(AUCiv of parent compound (from parent compound administered samples). PK profile of Compounds No. 1 and No. 2 in rats, dogs and monkeys are depicted in Table 5 and 6, respectively (also shown in FIGS. 1 and 2).

[10] = system: animal infection models; conditions: compound of WO 2009/084614; cited from earlier work
[11] = pH 1.2, simulated gastric fluid, Japanese Pharmacopeia First Fluid (JP1), read-out: Solubility JP1
[12] = pH 6.8, aqueous buffer, Japanese Pharmacopeia Second Fluid (JP2), read-out: Solubility JP2

CCc1[nH]c(C(=O)N[C@@H]2CCN(c3nnc(C(C)O)s3)C[C@@H]2OC)nc1Cl (stereo partly drawn) [Compound D, 4-chloro-5-ethyl-N-{(3S,4R)-1-[5-(1-hydroxyethyl)-1,3,4-thiadiazol-2-yl]-3-methoxypiperidin-4-yl}-1H-imidazole-2-carboxamide]
AUC(0-inf) [1]: 3.11 µg·h/mL | solubility [2]: 0.752 mg/mL (≈ 1.81 mM)

CCc1c(Cl)nc(C(=O)N[C@@H]2CCN(c3nnc(C(C)(C)O)s3)C[C@@H]2OC)n1COP(=O)(O)O [Compound No. 1, [4-Chloro-5-ethyl-2-({(3S,4R)-1-[5-(2-hydroxypropan-2-yl)-1,3,4-thiadiazol-2-yl]-3-methoxypiperidin-4-yl}carbamoyl)-1H-imidazol-1-yl]methyl dihydrogen phosphate]
Survival on day 35 [3]: 100% | Cidal potential (number of bacteria in the thigh) ([4]; fractionated doses 50 mg/kg/dose q12h, 25 mg/kg/dose q6h, 12.5 mg/kg/dose q3h): cidal potential | Therapeutic effect (change in the number of bacteria in the thigh) ([4]; neutropenic mouse thigh, VRE IV258 21076): exhibited the therapeutic effect | solubility at 30 min [5, 11]: > 1.28 mg/mL | solubility at 30 min [5, 12]: > 1.32 mg/mL | log10 kill (number of bacteria in the thigh) ([6]; compared to 2 hours pre-control): 1 log10 | log10 kill (number of bacteria in the thigh) ([6]; compared to 26 hours post control): 2.99 log10 | Therapeutic effect (change in the number of bacteria in the thigh) ([6]; neutropenic rat thigh, MRSA 02541): exhibited the therapeutic effect | Cidal potential (number of bacteria in the thigh) ([7]; 200 mg/kg/dose q24h, 100 mg/kg/dose q24h, and 50 mg/kg/dose q24h and their fractions irrespective of dosing schedule): cidal potential | Therapeutic effect (change in the number of bacteria in the thigh) ([7]; neutropenic mouse thigh, MRSA 02541): exhibited the therapeutic effect | log10 kill (number of bacteria in the lungs) ([8]; 6.25 mg/kg/dose, SC q6h, compared to 1 hour pre-control): 1.33 log10 | log10 kill (number of bacteria in the lungs) ([8]; 6.25 mg/kg/dose, SC q6h, compared to 25 hour post control): 2.52 log10 | log10 kill (number of bacteria in the lungs) ([8]; 12.5 mg/kg/dose, SC, q6h, compared to 1 hour pre-control): 1.76 log10 | log10 kill (number of bacteria in the lungs) ([8]; 12.5 mg/kg/dose, SC, q6h, compared to 25 hour post control): 2.95 log10 | Therapeutic effect (change in the number of bacteria in the lungs) ([8]; mouse lung infection, MRSA 562): exhibited the therapeutic effect | AUC(0-inf) [9]: 0.27 µg·h/mL

CCc1[nH]c(C(=O)N[C@@H]2CCN(c3nnc([C@H](O)CO)s3)C[C@@H]2OC)nc1Cl [Compound C, 4-chloro-N-[(3S,4R)-1-{5-[(1R)-1,2-dihydroxyethyl]-1,3,4-thiadiazol-2-yl}-3-methoxypiperidin-4-yl]-5-ethyl-1H-imidazole-2-carboxamide]
AUC(0-inf) [1]: 0.99 µg·h/mL | solubility [2]: 2.44 mg/mL (≈ 5.67 mM)

CCO[C@H]1CN(c2nncs2)CC[C@H]1NC(=O)c1nc(Cl)c(CC)[nH]1 [Compound No. 150]
Efficacy in animal infection models [10]: not being efficacious

CCc1nc(C(=O)N[C@@H]2CCN(c3nnc(C(C)(C)O)s3)C[C@@H]2OC)n(COP(=O)(O)O)c1Cl [Compound No. 2, [5-Chloro-4-ethyl-2-({(3S,4R)-1-[5-(2-hydroxypropan-2-yl)-1,3,4-thiadiazol-2-yl]-3-methoxypiperidin-4-yl}carbamoyl)-1H-imidazol-1-yl]methyl dihydrogen phosphate]
Survival on day 35 [3]: 100% | solubility at 30 min [5, 11]: > 1.12 mg/mL | solubility at 30 min [5, 12]: > 1.09 mg/mL
